Measured values: ChEMBL document CHEMBL1201862, “PubChem BioAssay data set” (2004)
Active and inactive are the calls of the source.

Columns and labels:
[1] = viability inhibitors of stage V gametocytes – luminescence, dose response (AID 1117278); format: functional, cell-based;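 also: gametocytes exposed to compound for 24 hours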
[2] = viability loss in human Jurkat cells – cell-based, luminescence, cytotoxicity control for P. falciparum gametocyte viability project, dose response (AID 1117277); format: functional;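 also: potency reflects loss of cellular ATP meaning fewer viable cells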
Beta-lactamase [3] = biological target: Beta-lactamase (Salmonella choleraesuis (strain SC-B67), UniProt Q5J463); assay: Epi-absorbance-based counterscreen for selective VIM-2 inhibitors: dose response biochemical high throughput screening assay to identify inhibitors of TEM-1 serine-beta-lactamase.
Beta-lactamase [4] = biological target: T1, Beta-lactamase (Pseudomonas aeruginosa, UniProt Q79MP6); assay: inhibition of IMP-1 beta-lactamase activity – biochemical, epi-absorbance, selectivity assay for VIM-2 inhibitor project, dose response (AID 1920)
Beta-lactamase [5] = biological target: T1, Beta-lactamase; assay: […] counterscreen for selective VIM-2 inhibitors: dose response biochemical high throughput screening assay to identify inhibitors of IMP-1 metallo-beta-lactamase.
Kallikrein-7 = Kallikrein-7 (Homo sapiens, UniProt P49862); assay: Fluorescence Intensity-based biochemical primary high throughput dose response assay to identify activators of kallikrein-7 (K7) zymogen.
fMet-Leu-Phe receptor = fMet-Leu-Phe receptor (Homo sapiens, UniProt P21462); assay: formyl peptide receptor binders – dose response (AID 519); format: functional
Paired box protein Pax-8 = Paired box protein Pax-8 (Homo sapiens, UniProt Q06710); assay: PAX8 transcriptional activity inhibition in RMG-I – RMG-I cells, luciferase, cherry-pick, dose response (AID 687027); format: functional, cell-based;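 also: luciferase reporter driven by Pax8 target thyroperoxidase promoter measured by SteadyGlo luminescence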
[6] = reduced cellular PGC1a acetyl-lysine signal – cell-based, cherry-picked samples, dose response (AID 720514); format: functional;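 also: potency may reflect raised or lowered acetylation signal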
[7] = A549 cell cytotoxicity, dose response, cytotoxicity control, plate reader, cherry-pick, antagonist series (AID 743412); format: functional, cell-based
[8] = toxicity toward HepG2 liver cells – cell-based, plate reader, cherry-pick, antagonist series, cytotoxicity control, dose response (AID 743416); format: functional
[9] = blockers of bursicon-stimulated LGR2 cAMP reporter – cell-based, HEK293, CRE-luciferase reporter, cherry pick, set 2, dose response (AID 743343); format: functional;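 also: transfected cells were stimulated with diluted bursicon conditioned medium after compound addition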
[10] = general cell-killing toxicity readout – plate reader, dry powder samples, cytotoxicity control for PAX8 inhibitor project, dose response (AID 743021); format: functional, cell-based
[11] = blockade of melanocortin 4 receptor signaling – cell-based, plate reader, cherry pick, counter-screen for LGR2 antagonist project, dose response (AID 743444); format: functional;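 also: transfected HEK 293 cells stimulated with alpha-MSH peptide; potency of inhibitors of the alpha-MSH evoked signal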
[12] = viability loss in HEK293 cells – cell-based, plate reader, cherry-picked samples, cytotoxicity control, dose response (AID 743446); format: functional
[13] = biological target: T2, Carboxy-terminal domain RNA polymerase II polypeptide A small phosphatase 1 (Homo sapiens, UniProt Q9GZU7); assay: CTDSP1 inhibitors, concentration-response, biochemical, absorbance readout, ultra-high-throughput screen actives (AID 540297); format: functional
T2 sequence (Q9GZU7 whole entry): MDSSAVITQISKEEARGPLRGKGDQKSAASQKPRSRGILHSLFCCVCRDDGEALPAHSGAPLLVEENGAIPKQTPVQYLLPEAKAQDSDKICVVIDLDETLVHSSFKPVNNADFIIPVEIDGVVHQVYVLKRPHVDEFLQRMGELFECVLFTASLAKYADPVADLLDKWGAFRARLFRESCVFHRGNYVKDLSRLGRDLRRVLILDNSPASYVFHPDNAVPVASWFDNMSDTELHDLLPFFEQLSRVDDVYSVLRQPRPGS

[14] = biological target: Tyrosine-protein phosphatase non-receptor type 11 (Homo sapiens, UniProt Q06124); assay: PTPN11 enzyme inhibitors – biochemical, selectivity assay for STEP inhibitor project, dose response (AID 602367); format: functional; settings: read-out: IC50_Mean
[15] = biological target: Tyrosine-protein phosphatase non-receptor type 5 (Homo sapiens, UniProt P54829); assay: PTPN5 enzyme inhibition – biochemical, fluorescence intensity, uHTS hits, confirmation (AID 602372); format: functional; settings: read-out: IC50_Mean
[16] = biological target: Dual specificity protein phosphatase 3 (Homo sapiens, UniProt P51452); assay: VHR phosphatase inhibition, dose response, selectivity assay for STEP inhibitor project, biochemical (AID 602374); format: functional; settings: read-out: IC50_Mean
[17] = biological target: Disintegrin and metalloproteinase domain-containing protein 17 (Homo sapiens, UniProt P78536); assay: exosite inhibitors of ADAM17, dose response, biochemical (AID 743260)
[18] = inhibition of ADAM10 peptide cleavage – biochemical, FRET peptide substrate, recombinant human ADAM10, selectivity assay for ADAM17 exosite inhibitor project, dose response (AID 743259);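 also: ADAM10 enzyme cleaving a FRET peptide substrate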
[19] = biological target: 1-phosphatidylinositol 4,5-bisphosphate phosphodiesterase gamma-1 (Homo sapiens, UniProt P19174); assay: Counterscreen for inhibitors of phospholipase C isozymes (PLC-B3): Fluorescence-based biochemical high throughput dose response assay to identify inhibitors of phospholipase C isozymes (PLC-gamma1).
[20] = biological target: 1-phosphatidylinositol 4,5-bisphosphate phosphodiesterase beta-3 (Homo sapiens, UniProt Q01970); assay: Fluorescence-based biochemical high throughput dose response assay to identify inhibitors of phospholipase C isozymes (PLC-B3).
[21] = rise of 2N DNA cells, HeLa – IC50, dose response (AID 1117349); format: functional, cell-based
[22] = CellTiter-Glo luminescence survival assay, SW480 colon tumor line, concentration-response curve, half-maximal inhibitory concentration (AID 1117338); format: functional
[23] = RKO cell viability reduction, dose response, CellTiter-Glo luminescence (AID 1117322); format: functional
[24] = cytotoxicity toward HCT116 cells – cell-based, CellTiter-Glo luminescence, IC50, dose response (AID 1117332); format: functional; settings: HCT-116
[25] = SNU-C1 cell viability reduction, dose response, CellTiter-Glo luminescence (AID 1117323); format: functional, cell-based
[26] = cytotoxicity toward Colo320 cells – cell-based, CellTiter-Glo luminescence, IC50, dose response (AID 1117334); format: functional; settings: COLO 320
[27] = rise of 4N DNA cells, HeLa – IC50, dose response (AID 1117351); format: functional, cell-based
[28] = cytotoxicity toward HT-29 cells – cell-based, CellTiter-Glo luminescence, IC50, dose response (AID 1117330); format: functional
[29] = Reduced DLD-1 viability, concentration-response, CellTiter-Glo luminescence (AID 1117352); format: functional
[30] = HCT116 cell viability decrease, GSK3B pretreatment – CellTiter-Glo, IC50, dose response (AID 1117339); format: functional; settings: HCT-116

T1 sequence (Q79MP6 whole entry): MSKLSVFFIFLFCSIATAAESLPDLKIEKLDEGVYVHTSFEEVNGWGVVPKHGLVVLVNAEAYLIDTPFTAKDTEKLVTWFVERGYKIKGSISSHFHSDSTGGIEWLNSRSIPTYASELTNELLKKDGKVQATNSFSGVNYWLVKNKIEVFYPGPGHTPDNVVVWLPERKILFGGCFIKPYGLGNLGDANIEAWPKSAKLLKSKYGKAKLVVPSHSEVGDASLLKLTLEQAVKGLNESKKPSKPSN
Chain of fMet-Leu-Phe receptor (P21462 whole entry): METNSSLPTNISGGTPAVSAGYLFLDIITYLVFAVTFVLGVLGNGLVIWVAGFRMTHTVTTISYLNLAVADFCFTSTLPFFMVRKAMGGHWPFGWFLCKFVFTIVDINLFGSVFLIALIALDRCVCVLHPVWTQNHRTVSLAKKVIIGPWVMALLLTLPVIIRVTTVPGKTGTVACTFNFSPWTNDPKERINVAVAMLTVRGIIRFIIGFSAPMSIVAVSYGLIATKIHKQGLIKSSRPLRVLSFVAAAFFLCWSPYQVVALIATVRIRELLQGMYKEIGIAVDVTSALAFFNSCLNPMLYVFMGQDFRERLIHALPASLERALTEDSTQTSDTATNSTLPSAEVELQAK
Chain of Kallikrein-7 (P49862 whole entry): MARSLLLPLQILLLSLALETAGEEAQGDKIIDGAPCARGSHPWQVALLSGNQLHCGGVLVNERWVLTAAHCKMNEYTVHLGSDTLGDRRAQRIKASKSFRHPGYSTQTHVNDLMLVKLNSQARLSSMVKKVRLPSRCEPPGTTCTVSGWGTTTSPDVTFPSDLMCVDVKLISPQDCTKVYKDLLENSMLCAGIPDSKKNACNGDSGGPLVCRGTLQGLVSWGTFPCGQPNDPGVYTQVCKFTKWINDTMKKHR
Chain of Tyrosine-protein phosphatase non-receptor type 11 (Q06124 whole entry): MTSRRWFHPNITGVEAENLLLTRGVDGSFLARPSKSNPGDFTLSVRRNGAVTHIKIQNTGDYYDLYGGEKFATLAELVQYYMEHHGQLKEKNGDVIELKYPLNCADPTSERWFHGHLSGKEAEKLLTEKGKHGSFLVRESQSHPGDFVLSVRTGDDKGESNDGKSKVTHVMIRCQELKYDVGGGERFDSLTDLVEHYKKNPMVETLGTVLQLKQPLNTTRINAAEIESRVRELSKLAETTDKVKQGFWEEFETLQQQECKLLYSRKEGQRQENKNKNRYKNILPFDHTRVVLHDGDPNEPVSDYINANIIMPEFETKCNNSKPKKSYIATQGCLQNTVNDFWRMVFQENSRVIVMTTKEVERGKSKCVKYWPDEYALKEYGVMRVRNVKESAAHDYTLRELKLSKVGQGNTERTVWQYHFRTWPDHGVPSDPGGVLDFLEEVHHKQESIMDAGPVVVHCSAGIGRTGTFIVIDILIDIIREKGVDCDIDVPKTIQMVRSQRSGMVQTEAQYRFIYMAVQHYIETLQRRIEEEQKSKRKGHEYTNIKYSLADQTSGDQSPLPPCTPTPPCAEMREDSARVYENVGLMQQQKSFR
Chain of 1-phosphatidylinositol 4,5-bisphosphate phosphodiesterase beta-3 (Q01970 whole entry): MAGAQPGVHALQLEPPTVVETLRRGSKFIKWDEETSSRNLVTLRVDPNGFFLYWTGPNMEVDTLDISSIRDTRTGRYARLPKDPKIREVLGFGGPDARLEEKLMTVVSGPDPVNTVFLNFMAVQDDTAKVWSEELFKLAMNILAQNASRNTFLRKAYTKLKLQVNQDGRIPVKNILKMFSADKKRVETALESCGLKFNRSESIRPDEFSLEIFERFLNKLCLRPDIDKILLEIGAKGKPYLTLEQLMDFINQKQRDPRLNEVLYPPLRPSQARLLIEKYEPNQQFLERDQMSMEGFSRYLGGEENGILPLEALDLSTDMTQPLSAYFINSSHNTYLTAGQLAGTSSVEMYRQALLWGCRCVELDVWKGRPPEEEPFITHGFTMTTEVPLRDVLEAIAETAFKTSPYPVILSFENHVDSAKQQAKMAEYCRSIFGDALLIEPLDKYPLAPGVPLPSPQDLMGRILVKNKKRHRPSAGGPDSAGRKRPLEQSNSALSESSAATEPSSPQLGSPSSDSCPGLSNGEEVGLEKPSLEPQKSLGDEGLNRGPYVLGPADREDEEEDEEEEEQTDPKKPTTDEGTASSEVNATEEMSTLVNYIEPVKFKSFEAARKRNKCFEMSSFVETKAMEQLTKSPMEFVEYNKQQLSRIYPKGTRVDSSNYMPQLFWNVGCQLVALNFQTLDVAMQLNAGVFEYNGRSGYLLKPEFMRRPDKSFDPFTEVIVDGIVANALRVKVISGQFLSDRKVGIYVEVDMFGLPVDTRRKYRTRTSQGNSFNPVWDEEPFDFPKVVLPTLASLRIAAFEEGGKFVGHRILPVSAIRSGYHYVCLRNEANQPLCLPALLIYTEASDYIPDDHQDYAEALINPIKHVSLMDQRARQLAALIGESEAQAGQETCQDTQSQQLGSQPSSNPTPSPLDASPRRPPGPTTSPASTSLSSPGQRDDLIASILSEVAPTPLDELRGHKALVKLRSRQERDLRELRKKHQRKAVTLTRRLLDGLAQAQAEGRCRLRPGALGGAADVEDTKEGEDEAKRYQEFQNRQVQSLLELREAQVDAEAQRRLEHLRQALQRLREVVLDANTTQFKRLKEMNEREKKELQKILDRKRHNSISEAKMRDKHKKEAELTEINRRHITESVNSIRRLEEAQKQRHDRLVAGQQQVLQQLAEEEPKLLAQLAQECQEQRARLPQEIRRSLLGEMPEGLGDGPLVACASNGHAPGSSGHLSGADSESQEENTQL
Chain of Dual specificity protein phosphatase 3 (P51452 whole entry, the tested form may be a part): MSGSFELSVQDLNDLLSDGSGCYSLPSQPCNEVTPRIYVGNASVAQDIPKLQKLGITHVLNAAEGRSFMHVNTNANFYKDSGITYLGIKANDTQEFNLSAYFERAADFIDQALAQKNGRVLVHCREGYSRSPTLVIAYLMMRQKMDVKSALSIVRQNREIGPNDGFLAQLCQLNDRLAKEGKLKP
Chain of Disintegrin and metalloproteinase domain-containing protein 17 (P78536 whole entry, the tested form may be a part): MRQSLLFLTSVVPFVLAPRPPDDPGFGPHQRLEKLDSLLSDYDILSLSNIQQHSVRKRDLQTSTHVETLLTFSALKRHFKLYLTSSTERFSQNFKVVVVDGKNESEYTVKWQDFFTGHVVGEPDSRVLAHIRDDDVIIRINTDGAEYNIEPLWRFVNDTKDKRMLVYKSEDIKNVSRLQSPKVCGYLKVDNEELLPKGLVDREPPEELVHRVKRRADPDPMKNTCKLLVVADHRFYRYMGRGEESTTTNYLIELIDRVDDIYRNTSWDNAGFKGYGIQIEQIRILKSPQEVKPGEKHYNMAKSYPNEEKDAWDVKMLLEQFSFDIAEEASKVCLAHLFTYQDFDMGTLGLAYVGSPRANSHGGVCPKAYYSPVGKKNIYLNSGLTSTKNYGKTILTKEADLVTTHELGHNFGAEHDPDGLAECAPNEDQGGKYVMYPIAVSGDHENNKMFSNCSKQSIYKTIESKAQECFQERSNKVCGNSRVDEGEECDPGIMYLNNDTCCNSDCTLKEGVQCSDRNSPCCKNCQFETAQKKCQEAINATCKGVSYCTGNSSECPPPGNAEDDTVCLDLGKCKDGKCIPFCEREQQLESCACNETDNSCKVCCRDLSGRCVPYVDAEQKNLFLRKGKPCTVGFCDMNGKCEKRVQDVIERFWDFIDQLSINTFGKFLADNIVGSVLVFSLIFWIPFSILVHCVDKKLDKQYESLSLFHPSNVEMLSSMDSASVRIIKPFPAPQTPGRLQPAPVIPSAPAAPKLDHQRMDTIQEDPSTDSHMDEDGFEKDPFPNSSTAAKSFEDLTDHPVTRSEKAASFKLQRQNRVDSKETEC
Chain of 1-phosphatidylinositol 4,5-bisphosphate phosphodiesterase gamma-1 (P19174 whole entry): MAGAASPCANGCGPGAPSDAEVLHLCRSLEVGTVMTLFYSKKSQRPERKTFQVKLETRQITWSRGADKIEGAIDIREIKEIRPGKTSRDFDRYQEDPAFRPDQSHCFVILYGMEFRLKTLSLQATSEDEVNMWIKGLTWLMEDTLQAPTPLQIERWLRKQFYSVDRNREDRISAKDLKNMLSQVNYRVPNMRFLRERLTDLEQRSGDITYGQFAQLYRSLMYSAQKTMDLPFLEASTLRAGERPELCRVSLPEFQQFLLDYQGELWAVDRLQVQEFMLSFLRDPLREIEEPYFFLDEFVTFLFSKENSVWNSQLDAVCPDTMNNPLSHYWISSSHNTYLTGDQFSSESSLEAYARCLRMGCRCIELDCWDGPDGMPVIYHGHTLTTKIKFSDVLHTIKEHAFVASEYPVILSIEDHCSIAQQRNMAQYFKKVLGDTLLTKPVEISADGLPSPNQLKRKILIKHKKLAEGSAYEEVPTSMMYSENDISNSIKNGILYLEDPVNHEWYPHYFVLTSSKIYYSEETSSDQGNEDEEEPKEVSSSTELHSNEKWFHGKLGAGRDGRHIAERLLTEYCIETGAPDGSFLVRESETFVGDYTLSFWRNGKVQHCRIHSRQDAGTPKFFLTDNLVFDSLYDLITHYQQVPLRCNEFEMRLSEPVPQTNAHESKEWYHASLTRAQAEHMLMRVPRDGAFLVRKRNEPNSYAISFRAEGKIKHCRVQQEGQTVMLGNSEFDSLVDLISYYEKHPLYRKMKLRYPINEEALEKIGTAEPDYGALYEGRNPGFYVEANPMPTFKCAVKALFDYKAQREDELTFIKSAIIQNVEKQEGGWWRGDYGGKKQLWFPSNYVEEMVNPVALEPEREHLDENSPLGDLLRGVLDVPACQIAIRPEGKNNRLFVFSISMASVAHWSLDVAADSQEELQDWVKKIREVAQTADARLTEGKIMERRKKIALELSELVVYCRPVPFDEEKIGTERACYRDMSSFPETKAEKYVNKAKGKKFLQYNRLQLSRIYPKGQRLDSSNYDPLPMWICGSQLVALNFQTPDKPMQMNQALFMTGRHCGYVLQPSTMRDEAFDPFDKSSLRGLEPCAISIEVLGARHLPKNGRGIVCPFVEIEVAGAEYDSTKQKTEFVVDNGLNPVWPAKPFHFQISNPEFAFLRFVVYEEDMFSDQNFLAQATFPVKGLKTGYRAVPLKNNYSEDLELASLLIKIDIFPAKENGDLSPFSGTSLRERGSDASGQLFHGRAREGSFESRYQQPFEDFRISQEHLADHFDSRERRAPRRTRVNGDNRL

SMILES: COc1ccc(-n2c(-c3ccco3)nc3c(cnn3-c3ccccc3C)c2=O)cc1
- IC50 [1]: > 109 µM (inactive)
- IC50 [2]: > 83.3 µM (inactive)

SMILES: Cc1cc(=O)oc2c3c(cc(OCC(=O)N[C@@H](Cc4ccccc4)C(=O)O)c12)OC(C)(C)CC3
- IC50 (Beta-lactamase [3]): > 59.6 µM (inactive)
- IC50 (Beta-lactamase [4]): > 59.6 µM (inactive)
- IC50 (Beta-lactamase [5]): > 59.6 µM (inactive)
- EC50 (Kallikrein-7): 49 µM (inactive)

SMILES: Cc1ccc(NC(=O)c2oc3ccc(S(=O)(=O)N4CCOCC4)cc3c2C)cc1C
- Ki (fMet-Leu-Phe receptor): > 66.7 µM (inactive)

SMILES: COc1ccc(-n2nnnc2C(CCc2ccccc2)N2CCC(n3c(O)nc4ccccc43)CC2)cc1 (configuration not stated)
- AC50 (Paired box protein Pax-8): 7.54 µM (active)
- AC50 [6]: 21.4 µM (active)
- AC50 [7]: 14.7 µM (active)
- AC50 [8]: > 52 µM (inactive)
- AC50 [9]: 11.3 µM (active)
- AC50 [10]: 24.5 µM (active)
- AC50 [11]: 9.43 µM (active)
- AC50 [12]: 10.1 µM (active)

SMILES: CCN(c1ccccc1)S(=O)(=O)c1cc(C(=O)OC(C)C(=O)Nc2ccc3c(c2)OCCO3)ccc1C (configuration not stated)
- IC50 [13]: 4.38 µM (active)
- IC50 [14]: 2.47 µM (active)
- IC50 [15]: > 80 µM (inactive)
- IC50 [16]: 5.05 µM (active)
- IC50 [17]: > 69.5 µM (inactive)
- IC50 [18]: > 7.72 µM (active)

SMILES: Cn1c(CCNC(=O)C2CCCCC2)nc2cc(NC(=O)c3cccs3)ccc21
- IC50 [1]: > 109 µM (inactive)
- IC50 [2]: > 83.3 µM (inactive)

SMILES: Cc1ccc(C(=O)C2=C(O)C(=O)N(CCN3CCOCC3)C2c2cccnc2)cc1 (configuration not stated)
- Ki (fMet-Leu-Phe receptor): > 66.7 µM (inactive)

SMILES: COC(=O)C(C(=O)OC)[C@H]1C=C[C@@H](C(=O)NS(=O)(=O)c2ccc(C)cc2)N(C(C)=O)C1
- IC50 [19]: 2.03 µM (active)
- IC50 [20]: > 122 µM (inactive)

SMILES: O=C(O)c1ccc(-n2nc(-c3ccccc3O)nc2-c2ccccc2O)cc1 [DEFERASIROX]
- IC50 [21]: > 10 µM (inactive)
- IC50 [22]: 0.0776 µM (active)
- IC50 [23]: 0.1 µM (active)
- IC50 [24]: 0.438 µM (active)
- IC50 [25]: 0.233 µM (active)
- IC50 [26]: 0.409 µM (active)
- IC50 [27]: > 10 µM (inactive)
- IC50 [28]: 0.516 µM (active)
- IC50 [29]: 0.651 µM (active)
- IC50 [30]: 0.242 µM (active)

SMILES: O=C(O)CCN1c2cccc3cccc(c23)S1(=O)=O
- EC50 (Kallikrein-7): > 7.72 µM (active)
